How the values were obtained:
A549 = test: Relative drug sensitivity in NSCLC cell lines, BrdU Cell Proliferation ELISA; assay type: cell-based, human; details: A549 cell line, EGFR+
Protocol: (§1) The NSCLC cell lines were grown using standard cell culture conditions: DMEM supplemented to contain 10% fetal bovine serum, 100 IU/ml penicillin, […] streptomycin and 2 mM L-glutamine (all from Invitrogen Life Technologies, Carlsbad, Calif.). […] Cytotoxicity was assessed in cells by BrdU Cell Proliferation calorimetric ELISA (Roche Applied Science, Indianapolis, Ind.). This is a calorimetric immunoassay for the quantification of cell proliferation based on the measurement of BrdU incorporation during DNA synthesis. To carry out the assays, the NSCLC cells were plated at 2500-5000 cells/well in 96 well microtiter plates and 24 hours later diluted monoclonal antibody drug was added. […] The cells were incubated at 37° C. for 48 hours at which time the BrdU labeling reagent was added. After two hours the labeling medium was removed and cells were fixed and the DNA was denatured using a FixDenat solution. The anti-BrdU antibody conjugated with peroxidase was added and immune complexes were detected by the subsequent substrate reaction. The reaction product was quantified by measuring the absorbance of the samples in an ELISA reader at […]. The greater the absorbency, the greater the number of live cells. […] Three to six independent BrdU assays were performed for each cell line.

LX1 = test: as above; assay type: cell-based, human; details: LX1 (LX-1) cell line, EGFR negative
Protocol: as §1

H226 = test: as above; assay type: cell-based, human; details: H226 cell line, EGFR+
Protocol: as §1

L2987 = test: as above; assay type: cell-based, human; details: L2987 cell line
Protocol: as §1

ChagoK1 = test: as above; assay type: cell-based, human; details: ChagoK1 cell line
Protocol: as §1

H522 = test: as above; assay type: cell-based, human; details: H522 cell line, EGFR negative
Protocol: as §1

LX1 lung xenograft = test: In vivo antitumor testing, lung xenograft model; details: nude mice
Protocol: (§2) Tumors were propagated in nude mice as subcutaneous (sc) transplants using tumor fragments obtained from donor mice. Tumor passage occurred approximately every two to four weeks. Tumors were then allowed to grow to the pre-determined size window (usually between 100-200 mg, tumors outside the range were excluded) and animals were evenly distributed to various treatment and control groups. […] Treated animals were checked daily for treatment related toxicity/mortality. Each group of animals was weighed before the initiation of treatment (Wt1) and then again following the last treatment dose (Wt2). The difference in body weight (Wt2-Wt1) provided a measure of treatment-related toxicity. Tumor response was determined by measurement of tumors with a caliper twice a week, until the tumors reached a predetermined target size of 1 gm or became necrotic. Tumor weights (mg) were estimated from the formula: Tumor weight=(length×width^2)/2 Antitumor activity was determined in terms of primary tumor growth inhibition. This was determined in two ways: (i) calculating the relative median tumor weight (MTW) of treated (T) and control (C) mice at various time points (effects were expressed as % T/C); and (ii) calculating the tumor growth delay (T-C value), defined as the difference in time (days) required for the treated tumors (T) to reach a predetermined target size compared to those of the control group (C). Statistical evaluations of data were performed using Gehan's generalized Wilcoxon test for comparisons of time to reach tumor target size (Gehan 1965). Statistical significance was declared at p<0.05. Antitumor activity was defined as a continuous MTW % T/C≦50% for at least 1 tumor volume doubling time (TVDT) any time after the start of treatment, where TVDT (tumor volume doubling time)=median time (days) for control tumors to reach target size−median time (days) for control tumors to reach half the target size.
(§3) Treated animals were checked daily for treatment related toxicity/mortality.

L2987 lung xenograft = test: In vivo antitumor testing, lung xenograft model; details: nude mice
Protocol: as §2, §3

A549 lung xenograft = test: In vivo antitumor testing, lung xenograft model; details: nude mice
Protocol: as §2, §3

Compound: COc1cc2ncnc(Nc3ccc(F)c(Cl)c3)c2cc1OCCCN1CCOCC1 [gefitinib]
- resistance/sensitivity classification (A549): resistant
- resistance/sensitivity classification (LX1): resistant
- resistance/sensitivity classification (H226): resistant
- resistance/sensitivity classification (L2987): resistant
- resistance/sensitivity classification (ChagoK1): sensitive
- resistance/sensitivity classification (H522): resistant
- sensitivity of lung xenograft model (LX1 lung xenograft): resistant
- sensitivity of lung xenograft model (L2987 lung xenograft): sensitive
- sensitivity of lung xenograft model (A549 lung xenograft): borderline sensitive

Source: patent publication US20070259375A1, “Biomarkers and Methods for Determining Sensitivity to Epidermal Growth Factor Receptor Modulators in Non-Small Cell Lung Cancer” (Bristol-Myers Squibb Company, priority 2004, published 2007)
